Data from PubChem BioAssay (NCI).
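Cells were grown in 96-well plates and exposed to each compound for 48 hours at five concentrations; endpoints were interpolated linearly between bracketing concentrations, or set to the highest concentration if not reached. GI50: concentration for 50% inhibition of growth. TGI: concentration producing complete growth inhibition.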

Legend:
Assay in all cases: DTP human tumour cell line panel, 48 h
OVCAR-3 ovarian = test system: OVCAR-3 ovarian
SF-268 CNS = test system: SF-268 CNS
PC-3 prostate = test system: PC-3 prostate
HCC-2998 colon = test system: HCC-2998 colon
MDA-MB-231 breast = test system: MDA-MB-231 breast
COLO 205 colon = test system: COLO 205 colon
M14 melanoma = test system: M14 melanoma
HS 578T breast = test system: HS 578T breast
NCI-H460 lung = test system: NCI-H460 lung
K-562 leukemia = test system: K-562 leukemia

| SMILES | TGI (OVCAR-3 ovarian) | TGI (SF-268 CNS) | TGI (PC-3 prostate) | TGI (HCC-2998 colon) | TGI (MDA-MB-231 breast) | TGI (COLO 205 colon) | TGI (M14 melanoma) | TGI (HS 578T breast) | TGI (NCI-H460 lung) | TGI (K-562 leukemia) | GI50 (OVCAR-3 ovarian) | GI50 (SF-268 CNS) | GI50 (PC-3 prostate) | GI50 (HCC-2998 colon) | GI50 (MDA-MB-231 breast) | GI50 (HS 578T breast) | GI50 (NCI-H460 lung) | GI50 (COLO 205 colon) | GI50 (K-562 leukemia) |
| --- | --- | --- | --- | --- | --- | --- | --- | --- | --- | --- | --- | --- | --- | --- | --- | --- | --- | --- | --- |
| CSc1ncnc2c1cnn2Cc1cn(COCC(O)CO)nn1 (configuration not stated) | > 100 µM | 52.7 µM | > 100 µM | > 100 µM | > 100 µM | > 100 µM | > 100 µM |  |  |  |  |  |  |  |  |  |  |  |  |
| CC(=O)Nc1ccc2c(c1)nc1c3ccccc3ccn21 |  | > 100 µM | > 100 µM |  | > 100 µM | > 100 µM | > 100 µM | > 100 µM | > 100 µM | > 100 µM |  |  |  |  |  |  |  |  |  |
| CC(=O)OC1COC(N2c3ccccc3[C@@H]3CCc4c([nH]c5ccccc45)[C@@H]32)C(OC(C)=O)C1OC(C)=O (mixture of isomers) | > 100 µM | > 100 µM | > 100 µM | > 100 µM | > 100 µM | > 100 µM | > 100 µM | > 100 µM | > 100 µM |  |  |  |  |  |  |  |  |  |  |
| O=C(/C=C/CC(O)(c1ccccc1)c1ccccc1)Nc1ccccc1Cl | > 100 µM | > 100 µM |  | > 100 µM |  | > 100 µM | > 100 µM |  | > 100 µM | > 100 µM |  |  |  |  |  |  |  |  |  |
| COC(=O)c1ccc2cc(O)ccc2c1 | > 100 µM | > 100 µM | > 100 µM | > 100 µM | > 100 µM | > 100 µM | > 100 µM |  |  | > 100 µM |  |  |  |  |  |  |  |  |  |
| CC(C)NC(=O)OCc1c(COC(=O)NC(C)C)n(C)c2c1ccc1cc(Cl)c(Cl)cc12 | 31.1 µM | 29.4 µM | 29 µM |  | 25.3 µM | 22.8 µM | 29.2 µM | 68.9 µM | 16.3 µM | > 100 µM |  |  |  |  |  |  |  |  |  |
| Oc1ccc(C[C@@H]2CN[C@H](Cc3ccc(O)c(Br)c3)CN2)cc1 | > 100 µM | > 100 µM | > 100 µM | > 100 µM | > 100 µM | > 100 µM | > 100 µM | > 100 µM |  |  |  |  |  |  |  |  |  |  |  |
| COc1ccc(C(=C2C(=O)OC(=O)C2=C(C)C)c2ccc(OC)cc2)cc1 | 47.5 µM | > 100 µM | > 100 µM | > 100 µM | > 100 µM | > 100 µM | > 100 µM | > 100 µM | > 100 µM |  |  |  |  |  |  |  |  |  |  |
| COc1ccc(C(=O)/C=C/c2ccc(OCCCCCCCCCCOc3ccc(/C=C/C(=O)c4ccc(OC)c(OC)c4)cc3)cc2)c(OC)c1 |  | > 100 µM | > 100 µM | > 100 µM | > 100 µM | > 100 µM | > 100 µM | > 100 µM | > 100 µM | > 100 µM |  |  |  |  |  |  |  |  |  |
| CCOC(=O)c1c(-c2ccc(OC)cc2)c(C#N)c(=S)n(C2OC(CO)C(O)C(O)C2O)c1C (configuration not stated) | > 100 µM | > 100 µM | > 100 µM | > 100 µM | > 100 µM | > 100 µM | > 100 µM |  |  | > 100 µM |  |  |  |  |  |  |  |  |  |
| Cc1ccc(S(=O)(=O)N2CCc3cc(O)c([N+](=O)[O-])cc32)cc1 |  | > 100 µM | > 100 µM |  | > 100 µM | > 100 µM | > 100 µM | > 100 µM |  |  |  |  |  |  |  |  |  |  |  |
| O=C1c2cc3c(cc2-c2c1c1cc(F)c(F)cc1c(=O)n2C[C@H](O)CO)OCO3 | 0.753 µM | > 100 µM | > 100 µM | 11.2 µM | 3.18 µM | 1.2 µM |  | > 100 µM | 0.141 µM | > 100 µM | 0.224 µM | 0.0411 µM | 0.127 µM | 0.14 µM | 0.378 µM | 0.939 µM | 0.031 µM | 0.103 µM | 0.069 µM |
| COC(=O)Cc1c2n(c3ccccc13)C(=O)N1c3ccccc3C(CC(=O)OC)C21 (configuration not stated) | > 100 µM | > 100 µM | > 100 µM | > 100 µM | 67.3 µM | > 100 µM |  | > 100 µM | 33.6 µM | > 100 µM |  |  |  |  |  |  |  |  |  |
| CN(C)CCN1C(=O)N(CCN(C)C)c2c3cc(O)ccc3nc3c([N+](=O)[O-])ccc1c23 |  | 26.7 µM | 75 µM | 25.8 µM | 25.4 µM | 23.3 µM |  | 45.8 µM | 26.4 µM | 14.5 µM |  |  |  |  |  |  |  |  |  |
| Cn1c(=O)c2[nH]c(Nc3cccc(Cl)c3)nc2n(C)c1=O |  | > 10 µM | > 10 µM | > 10 µM | > 10 µM | > 10 µM | > 10 µM |  |  | > 10 µM |  |  |  |  |  |  |  |  |  |
| O=c1ccn([C@@H]2C=C(CO)[C@@H](O)[C@H]2O)c(=O)[nH]1 | > 625 µM | > 625 µM |  | > 625 µM |  | > 625 µM |  |  | > 625 µM |  |  |  |  |  |  |  |  |  |  |
| CC12CCC(=O)[C@@]1(C)CCCC2=O (some centres not stated) |  | > 100 µM | > 100 µM | > 100 µM | > 100 µM | > 100 µM | > 100 µM | > 100 µM | > 100 µM | > 100 µM |  |  |  |  |  |  |  |  |  |
| CN(C)C(=O)/N=C1\SC(=Nc2ccccc2)C(=Nc2ccccc2)N1c1ccc([N+](=O)[O-])cc1 | > 100 µM |  | > 100 µM | > 100 µM | > 100 µM | > 100 µM | > 100 µM | > 100 µM | > 100 µM | > 100 µM |  |  |  |  |  |  |  |  |  |
| O=C1CN(c2ccccc2)C(=O)C1C(=O)Nc1ccc(Cl)c(Cl)c1 (configuration not stated) | 12.6 µM | 21.2 µM |  |  |  | 20.4 µM | 12.6 µM |  |  | 8.88 µM |  |  |  |  |  |  |  |  |  |
| COc1cccc(Nc2nc3c([nH]2)c(=O)n(C)c(=O)n3C)c1 |  | > 10 µM | > 10 µM | > 10 µM | > 10 µM | > 10 µM | > 10 µM |  |  | > 10 µM |  |  |  |  |  |  |  |  |  |
| CN1C2CCC1C(CO)C(=O)C2 (configuration not stated) | > 100 µM | > 100 µM | > 100 µM | > 100 µM | > 100 µM | 32.8 µM |  | > 100 µM | > 100 µM | 72 µM |  |  |  |  |  |  |  |  |  |
| O=C1c2cccnc2C(=O)c2c1nc1ccccc1c2-c1ccc2c3c(nc4ccccc42)C(=O)c2cccnc2-c13 |  | 6.46 µM | 37.2 µM | 9.28 µM | 9.49 µM | 5.68 µM | 4.55 µM | 11.1 µM | 3.97 µM | > 35.3 µM |  |  |  |  |  |  |  |  |  |
| CN(C)CN1C(=O)/C(=N\n2c(-c3ccncc3)n[nH]c2=S)c2ccccc21 | > 100 µM | > 100 µM | > 100 µM |  | > 100 µM | > 100 µM | 70.4 µM | > 100 µM | > 100 µM | > 100 µM |  |  |  |  |  |  |  |  |  |
